We go through 23 molecules from ChEMBL document CHEMBL4130493, “An insight into the biological activities of heterocyclic-fatty acid hybrid molecules” (Eur J Med Chem, 2017).

Assay [1] concerns Escherichia coli. Nature of the assay: Antibacterial activity against Escherichia coli MTCC 40 incubated for 24 hrs by serial two-fold dilution method. The format is functional. As to conditions: MTCC 40, 24 h.
For assay [2], the system named is Pseudomonas aeruginosa. Nature of the assay: Antibacterial activity against Pseudomonas aeruginosa MTCC 2453 incubated for 24 hrs by serial two-fold dilution method. The format is functional. As to conditions: MTCC 2453, 24 h.
Assay [3] has as its system Staphylococcus aureus. Nature of the assay: Antibacterial activity against Staphylococcus aureus MSSA 22 at 100 ug/mL incubated for 24 hrs by filter paper disc method. Type of assay: functional. As to conditions: MSSA 22, 24 h, read-out: DIZ.
Assay [4] relates to Bacillus subtilis. Nature of the assay: Antibacterial activity against Bacillus subtilis ATCC 6051 at 100 ug/mL incubated for 24 hrs by filter paper disc method. The format is functional. As to conditions: ATCC 6051, 24 h, read-out: DIZ.
Assay [5] deals with Escherichia coli. Nature of the assay: Antibacterial activity against Escherichia coli K-12 at 100 ug/mL incubated for 24 hrs by filter paper disc method. Type of assay: functional. As to conditions: K-12, 24 h, read-out: DIZ.
The test system of assay [6] is Salmonella typhimurium. Nature of the assay: Antibacterial activity against Salmonella typhimurium MTCC98 at 100 ug/mL incubated for 24 hrs by filter paper disc method. The format is functional, Salmonella enterica subsp. enterica serovar Typhimurium. As to conditions: Salmonella enterica, MTCC98, 24 h; read-out: DIZ.
Assay [7] deals with Candida albicans. Nature of the assay: Antifungal activity against Candida albicans IOA-109 at 100 ug/mL incubated for 18 to 48 hrs by agar disc diffusion method. The format is functional. As to conditions: read-out: DIZ. (In agar diffusion tests the substance spreads into inoculated agar from a disc or well.)
Assay [8] has as its system Hep 3B2. Nature of the assay: Cytotoxicity in human Hep3B cells incubated for 48 hrs by MTT assay. Type of assay: functional, cell-based. On the technique in general: Tetrazolium dyes change colour on reduction, which living cells bring about.
Assay [9] deals with A549. Nature of the assay: Cytotoxicity in human A549 cells by SRB assay. As to conditions: read-out: TC50 (the source's name). Type of assay: functional. (Sulforhodamine B stains cellular protein and so reports cell mass.)
The subject of assay [10] is Bacillus subtilis. Nature of the assay: Antibacterial activity against Bacillus subtilis MTCC 121 incubated for 24 hrs by filter paper disc method. Type of assay: functional.
The subject of assay [11] is Pseudomonas aeruginosa. Nature of the assay: Antibacterial activity against Pseudomonas aeruginosa incubated for 24 hrs by filter paper disc method. Type of assay: functional.
The subject of assay [12] is Staphylococcus aureus. Nature of the assay: Antibacterial activity against Staphylococcus aureus MSSA 22 incubated for 24 hrs by filter paper disc method. The format is functional.
Assay [13] deals with Escherichia coli. Nature of the assay: Antibacterial activity against Escherichia coli K-12 incubated for 24 hrs by filter paper disc method. Type of assay: functional.
Assay [14] concerns Candida albicans. Nature of the assay: Antifungal activity against Candida albicans IOA-109 at 50 ug/disc incubated for 5 to 6 days by disc diffusion method. The format is functional. As to conditions: read-out: DIZ.

SMILES strings stand for the structures. ≈ marks a conversion by molar mass, not a printed value.

With `CCCCCCCCCCCCCCCC(=O)NN1C(=O)CSC1c1ccccc1` (stereo unspecified), the MIC in [1] and in assay [2] was 0.35 to 0.7 µg/mL (≈ 0.809 to 1.62 µM) in each case.

Regarding `CCCCCCCCCCCCCCCC(=O)NN1C(=O)CSC1c1ccc(OC)cc1` (stereo unspecified), the MIC in [1] and in assay [2] was 0.35 to 0.7 µg/mL (≈ 0.756 to 1.51 µM) each time.

With `C=CCCCCCCCCc1nc(-c2cccc(O)c2)n[nH]1`, the zone of inhibition at 100 µg/mL lay within 13.1 to 22.2 mm in assay [3]; 13.1 to 22.2 mm in [4]; 13.1 to 22.2 mm in assay [5]; 13.1 to 22.2 mm in [6]; 17.2 to 19 mm in assay [7].

Turning to `CCCCCCC(O)C/C=C\CCCCCCCc1nc(-c2ccc(O)c(O)c2)n[nH]1` (stereo unspecified), the zone of inhibition at 100 µg/mL was 13.1 to 22.2 mm in [3]; 13.1 to 22.2 mm in assay [4]; 13.1 to 22.2 mm in assay [5]; 13.1 to 22.2 mm in assay [6]; 17.2 to 19 mm in assay [7].

Turning to `CCCCCCCCCCCCCC(=O)NN1C(=O)CSC1c1ccccc1` (stereo unspecified), the minimum inhibitory concentration (MIC) in [1] and in assay [2] was 0.35 to 0.7 µg/mL (≈ 0.865 to 1.73 µM) each time.

For the molecule `C=CCCCCCCCCc1n[nH]c(=S)n1N`, in assay [8], the midpoint of inhibition, the IC50, lay at 9.2 µM.

With `C=CCCCCCCCCc1n[nH]c(=S)o1`, the IC50 in [8] was found to be 8.94 µM. This IC50 and that of the molecule before are within 1.5-fold of each other.

For `CCCCCCCCCCCCCC(=O)NN1C(=O)CSC1c1ccc(Br)cc1` (stereo unspecified), the MIC in [1] and in assay [2] was 0.35 to 0.7 µg/mL (≈ 0.724 to 1.45 µM) throughout.

With `C=CCCCCCCCCc1nc(-c2ccccc2)n[nH]1`, the zone of inhibition at 100 µg/mL lay within 13.1 to 22.2 mm in assay [3]; 13.1 to 22.2 mm in assay [4]; 13.1 to 22.2 mm in assay [5]; 13.1 to 22.2 mm in assay [6]; 17.2 to 19 mm in assay [7].

Turning to `CCCCCCC(O)C/C=C\CCCCCCCc1nc(-c2ccccc2)n[nH]1` (stereo unspecified), the zone of inhibition at 100 µg/mL in assay [3] lay within 13.1 to 22.2 mm; in [4], 13.1 to 22.2 mm; in [5], 13.1 to 22.2 mm; in [6], 13.1 to 22.2 mm; in assay [7], 17.2 to 19 mm.

In the case of `CCCCCCCCCCCCCCCC(=O)NN1C(=O)CSC1c1ccc(Cl)cc1` (stereo unspecified), the MIC in assay [1] and in assay [2] was 0.35 to 0.7 µg/mL (≈ 0.749 to 1.5 µM) throughout.

Regarding `CCCCCCCCCCCCCCCCCc1nc(-c2ccccc2)n[nH]1`, the zone of inhibition at 100 µg/mL in [3] fell in the range of 13.1 to 22.2 mm; in assay [4], 13.1 to 22.2 mm; in assay [5], 13.1 to 22.2 mm; in assay [6] it was 13.1 to 22.2 mm; in [7], 17.2 to 19 mm.

For `CCCCCCCC/C=C\CCCCCCCc1nc(-c2ccc(O)c(O)c2)n[nH]1`, the zone of inhibition at 100 µg/mL in assay [3] lay within 13.1 to 22.2 mm; in assay [4] it was 13.1 to 22.2 mm; in assay [5], 13.1 to 22.2 mm; in assay [6], 13.1 to 22.2 mm; in assay [7], 17.2 to 19 mm.

As for `CCCCCCCCCCCCCCCCCc1nc(-c2ccc(O)c(O)c2)n[nH]1`, the zone of inhibition at 100 µg/mL in [3] was 13.1 to 22.2 mm; in [4] it was 13.1 to 22.2 mm; in assay [5], 13.1 to 22.2 mm; in assay [6] it was 13.1 to 22.2 mm; in [7], 17.2 to 19 mm.

For the molecule `CCCCCCCCCCCCCC(=O)NN1C(=O)CSC1c1ccc(O)cc1` (stereo unspecified), the MIC in [1] and in assay [2] was 0.35 to 0.7 µg/mL (≈ 0.832 to 1.66 µM) each time.

As for `CC/C=C\C/C=C\C/C=C\CCCCCCCc1nnc(S)n1N`, in [9], the CC50 came out at 0.264 µM.

With `CCCCC/C=C\CCC(O)CCCCCCCc1nc(-c2ccccc2)n[nH]1` (stereo unspecified), the zone of inhibition at 100 µg/mL in [3] was in the range of 13.1 to 22.2 mm; in assay [4], 13.1 to 22.2 mm; in assay [5] it was 13.1 to 22.2 mm; in assay [6] it was 13.1 to 22.2 mm; in assay [7] it was 17.2 to 19 mm.

Consider `CCCCCCCC(O)CC/C=C\CCCCC(=O)n1[nH]c(=O)c2ccccc2c1=O` (stereo unspecified), for which the “diameter of the inhibition zone (DIZ)” value in assay [10] is 10 - 18 mm; in assay [11], 10 - 18 mm; in assay [12], 10 - 18 mm; in assay [13] it was 15 - 18 mm.

Regarding `CCCCCCCC/C=C\CCCCCCCc1nc(-c2cccc(O)c2)n[nH]1`, the zone of inhibition at 100 µg/mL in [3] lay within 13.1 to 22.2 mm; in assay [4] it was 13.1 to 22.2 mm; in assay [5], 13.1 to 22.2 mm; in [6], 13.1 to 22.2 mm; in assay [7], 17.2 to 19 mm.

In the case of `CC/C=C\C/C=C\C/C=C\CCCCCCCc1nnc(S)o1`, in [9], the CC50 stood at 0.149 µM.

Take `CCCCCCCCCCCCCCCCCc1nc(-c2cccc(O)c2)n[nH]1`: the zone of inhibition at 100 µg/mL in assay [3] was in the range of 13.1 to 22.2 mm; in assay [4], 13.1 to 22.2 mm; in assay [5], 13.1 to 22.2 mm; in [6], 13.1 to 22.2 mm; in assay [7], 17.2 to 19 mm.

For the molecule `CCCCCCCC/C=C\C(O)CCCCCCC(=O)n1nnc2ccccc21` (stereo unspecified), the zone of inhibition at 50 µg/disc in assay [14] is 16 to 20 mm.

`C=CCCCCCCCCc1nc(-c2ccc(O)c(O)c2)n[nH]1`: the zone of inhibition at 100 µg/mL in assay [3] was in the range of 13.1 to 22.2 mm; in assay [4], 13.1 to 22.2 mm; in [5] it was 13.1 to 22.2 mm; in assay [6] it was 13.1 to 22.2 mm; in assay [7] it was 17.2 to 19 mm.

One may read the MIC as the smallest concentration in the dilution series that meets the test's criterion for growth inhibition. By IC50 is commonly meant the point on the concentration scale where inhibition reaches its midpoint. A high value points to weaker potency.
